Assay results as given in US20070265306A1, “4-[(3-fluorophenoxy)phenylmethyl]piperidine methanesulfonate: uses, process of synthesis and pharmaceutical compositions” (priority 2006, published 2007).
Where a name gives a salt, the structure may show the parent alone. Read-outs that look alike come from different tables or passages of the source.

Assays:
[1] = as mentioned in U.S. Pat. No. 6,518,284 B2 and EP1002794; cited from earlier work
hygroscopicity = format: physicochemical
5-HTP-induced syndrome = details: mice, orally administered, acute; cited from earlier work
[2] = system: dorsal raphe serotonergic neurones; details: in vivo; cited from earlier work
[3] = system: apomorphine-induced hypothermia; details: mice, orally administered, acute; cited from earlier work
[4] = system: immobility in the tail suspension test; details: mice, orally administered, acute; cited from earlier work
[5] = system: immobility in the forced swimming test; details: rats, 30 mg/kg, p.o.; cited from earlier work
social interaction time = details: rats, 14 days, 30 mg kg(−1) day(−1), p. o.; cited from earlier work
[6] = system: hyperactivity induced by olfactory bulbectomy; details: rats, chronic administration 14 days, 30 mg kg(−1) day(−1), p. o.; cited from earlier work
[7] = system: immobility in the forced swimming test; details: mice, 30 mg/kg, p.o.; cited from earlier work
[8] = studies of stability under forced conditions; format: physicochemical
Method: Additionally, the compound of formula I has shown excellent stability properties. The compound of formula I has remained stable for at least 6 months in studies of stability under forced conditions at 50 and 60° C., as well as at 40° C. and 75% humidity. This represents more than 2 years of stability under normal conditions.

Q: Which melting point does the source give for `Fc1cccc(O[C@H](c2ccccc2)C2CCNCC2)c1` (as salt: fumaric acid salt) [(S)-4-[(3-fluorophenoxy)phenylmethyl]piperidine] here?
A: 105 to 108 °C

Q: For `Fc1cccc(OC(c2ccccc2)C2CCNCC2)c1` (racemic) [4-[(3-fluorophenoxy)phenylmethyl]piperidine], which solubility in water [1] is on record?
A: insoluble in water

Q: For `Cl.Fc1cccc(O[C@H](c2ccccc2)C2CCNCC2)c1` [(S)-4-[(3-fluorophenoxy)phenylmethyl]piperidine hydrochloric acid salt], which hygroscopicity (hygroscopicity) is on record?
A: hygroscopic

Q: What about the melting point of the same compound?
A: 55 to 60 °C

Q: With `Fc1cccc(O[C@H](c2ccccc2)C2CCNCC2)c1.O=S(=O)(O)O` [(S)-4-[(3-fluorophenoxy)phenylmethyl]piperidine sulphuric acid salt] as the compound, how does the hygroscopicity (hygroscopicity) read?
A: hygroscopic

Q: Which “minimal effective dose (MED), potentiation of 5-HTP-induced syndrome” value (5-HTP-induced syndrome) does the source give for `Fc1cccc(O[C@H](c2ccccc2)C2CCNCC2)c1` [(S)-4-[(3-fluorophenoxy)phenylmethyl]piperidine] here?
A: 10 mg/kg

Q: What about the “ED50, decrease of electrical activity of dorsal raphe serotonergic neurones” value [2] of the same compound?
A: 0.5303 mg/kg

Q: And the “ED50, antagonism of hypothermia induced by a high dose of apomorphine” value [3]?
A: 2 mg/kg

Q: And the “MED, reduction of immobility in the tail suspension test” value [4]?
A: 10 mg/kg

Q: And the “immobility in the forced swimming test” value [5]?
A: decreases the immobility

Q: What about the social interaction time (social interaction time) of the same compound?
A: significantly increases

Q: And the “hyperactivity induced by olfactory bulbectomy” value [6]?
A: attenuates the hyperactivity

Q: What about the “immobility in the forced swimming test” value [7] of the same compound?
A: decreases the immobility

Q: What does the source list for `CS(=O)(=O)O.Fc1cccc(OC(c2ccccc2)C2CCNCC2)c1` (stereo not drawn) [compound of formula I, 4-[(3-fluorophenoxy)phenylmethyl]piperidine methanesulfonic acid salt]?
A: time remained stable under forced conditions ([8]; 40° C. and 75% humidity): at least 6 months; time remained stable under forced conditions ([8]; 50° C.): at least 6 months; time remained stable under forced conditions ([8]; 60° C.): at least 6 months; stability under normal conditions ([8]; normal conditions, extrapolated from forced conditions): more than 2 years; hygroscopicity (hygroscopicity): not hygroscopic
